Source: ChEMBL document CHEMBL5528016, “Design, synthesis and evaluation of novel deferasirox derivatives with high antifungal potency in vitro and in vivo” (Eur J Med Chem, 2024)
Values after ≈ are worked out from the molar mass of the structure shown. Active and inactive are the calls of the source. The rule behind the calls is not given here.

Columns and labels:
Candida albicans = assay: Antifungal activity against Candida albicans SC5314 assessed as reduction in fungal growth incubated for 72 hrs by broth microdilution method; format: functional
Candida parapsilosis = assay: Antifungal activity against Candida parapsilosis ATCC 22019 assessed as reduction in fungal growth incubated for 72 hrs by broth microdilution method; format: functional; settings: Lodderomyces parapsilosis
Candida tropicalis = assay: Antifungal activity against Candida tropicalis 2718 assessed as reduction in fungal growth incubated for 72 hrs by broth microdilution method; format: functional
Nakaseomyces glabratus [1] = assay: Antifungal activity against Candida glabrata 537 assessed as reduction in fungal growth incubated for 72 hrs by broth microdilution method; format: functional
[Candida] auris = Antifungal activity against Candida auris D12 assessed as reduction in fungal growth incubated for 72 hrs by broth microdilution method; format: functional; settings: Candidozyma auris
Nakaseomyces glabratus [2] = assay: Antifungal activity against Candida glabrata Y10-15 assessed as reduction in fungal growth incubated for 48 hrs by broth microdilution method; format: functional
Nakaseomyces glabratus [3] = assay: Antifungal activity against Candida glabrata 203 assessed as reduction in fungal growth incubated for 48 hrs by broth microdilution method; format: functional
Nakaseomyces glabratus [4] = assay: Antifungal activity against Candida glabrata 337 assessed as reduction in fungal growth incubated for 48 hrs by broth microdilution method; format: functional
Nakaseomyces glabratus [5] = assay: Antifungal activity against Candida glabrata YC1-34 assessed as reduction in fungal growth incubated for 48 hrs by broth microdilution method; format: functional
[6] = Antifungal activity against Cryptococcus gattii VGI E566 assessed as reduction in fungal growth incubated for 72 hrs by broth microdilution method; format: functional
[7] = Antifungal activity against Cryptococcus gattii VGI WM179 assessed as reduction in fungal growth incubated for 72 hrs by broth microdilution method; format: functional
[8] = Antifungal activity against Cryptococcus gattii VGI WM178 assessed as reduction in fungal growth incubated for 72 hrs by broth microdilution method; format: functional
[9] = Antifungal activity against Cryptococcus gattii VGI SCZ20024 assessed as reduction in fungal growth incubated for 72 hrs by broth microdilution method; format: functional
[10] = Antifungal activity against Cryptococcus gattii VGI SCZ20031 assessed as reduction in fungal growth incubated for 72 hrs by broth microdilution method; format: functional
Cryptococcus neoformans [11] = assay: Antifungal activity against Cryptococcus neoformans 444 assessed as reduction in fungal growth incubated for 72 hrs by broth microdilution method; format: functional
Cryptococcus neoformans [12] = assay: Antifungal activity against Cryptococcus neoformans BJ3 assessed as reduction in fungal growth incubated for 72 hrs by broth microdilution method; format: functional
Cryptococcus neoformans [13] = assay: Antifungal activity against Cryptococcus neoformans HN1 assessed as reduction in fungal growth incubated for 72 hrs by broth microdilution method; format: functional
Cryptococcus neoformans [14] = assay: Antifungal activity against Cryptococcus neoformans HN15 assessed as reduction in fungal growth incubated for 72 hrs by broth microdilution method; format: functional
HUVEC = assay: Cytotoxicity against HUVEC cells assessed as reduction in cell viability at 0.25 to 64 ug/ml incubated for 2 hrs by CCK-8 assay; format: toxicity, cell-based; settings: human, dose 0.25-64 µg/ml
Caco-2 = assay: Cytotoxicity against human Caco-2 cells assessed as reduction in cell viability at 0.25 to 64 ug/ml incubated for 2 hrs by CCK-8 assay; format: toxicity, cell-based; settings: caco-2, 2 h, dose 0.25-64 µg/ml
[15] = Hemolytic activity in rabbit Red blood cell at 2 ug/ml relative to control; format: toxicity, cell-based, Oryctolagus cuniculus, Erythrocyte; settings: red blood cells, at 2 µg/mL, read-out: Activity
[16] = Hemolytic activity in rabbit Red blood cell at 64 ug/ml relative to control; format: toxicity, cell-based, Oryctolagus cuniculus, Erythrocyte; settings: red blood cells, at 64 µg/mL, read-out: Activity
Cryptococcus neoformans [17] = assay: Antifungal activity against Cryptococcus neoformans H99 assessed as reduction in fungal growth incubated for 72 hrs by broth microdilution method; format: functional
Pichia kudriavzevii = assay: Antifungal activity against Pichia kudriavzevii 4946 assessed as reduction in fungal growth incubated for 72 hrs by broth microdilution method; format: functional
Cryptococcus neoformans [18] = assay: Antifungal activity against Cryptococcus neoformans 20 assessed as reduction in fungal growth incubated for 72 hrs by broth microdilution method; format: functional
[19] = Metabolic stability in mouse liver microsomes assessed as elimination rate constant; format: ADME, Microsome
[20] = Metabolic stability in mouse liver microsomes assessed as half life; format: ADME, Microsome
[21] = Metabolic stability in mouse liver microsomes assessed as intrinsic clearance; format: ADME, Microsome; settings: read-out: CLH
Cryptococcus neoformans [22] = assay: Antifungal activity against Cryptococcus neoformans assessed as increase in MIC incubated for 72 hrs in presence of FeCl3 by broth microdilution method; format: functional, organism-based
Erythrocyte = assay: Hemolytic activity in rabbit Red blood cell at 64 ug/ml; format: toxicity, cell-based, Oryctolagus cuniculus; settings: dose 64 µg/ml
[23] = Toxicity against ICR mouse assessed as hypertrophy at 50 mg/kg, ip administered at 24 hrs interval for 7 days by hematoxylin and eosin staining based analysis; format: organism-based; settings: in vivo, 168 h, time 7 day
[24] = Toxicity against ICR mouse assessed as reduction in lipid droplet at 50 mg/kg, ip administered at 24 hrs interval for 7 days by hematoxylin and eosin staining based analysis; format: organism-based; settings: in vivo, 168 h, time 7 day
[25] = Toxicity against ICR mouse assessed as enlargement of nucleus in hepatocytes at 50 mg/kg, ip administered at 24 hrs interval for 7 days by hematoxylin and eosin staining based analysis; format: organism-based; settings: in vivo, 168 h, time 7 day
[26] = Toxicity against ICR mouse assessed as reduction in lipid droplet at 20 mg/kg, ip administered at 24 hrs interval for 7 days by hematoxylin and eosin staining based analysis; format: organism-based; settings: in vivo, 168 h, time 7 day
[27] = Nephrotoxicity in ICR mouse at 50 mg/kg, ip administered at 24 hrs interval for 7 days by hematoxylin and eosin staining based analysis; format: toxicity, organism-based; settings: in vivo, 168 h, time 7 day
Cryptococcus neoformans [28] = assay: Antifungal activity against Cryptococcus neoformans H99 infected in C57BL/6J mouse assessed as reduction in fungal burden in brain at 2 mg/kg, ip; format: functional, organism-based
Cryptococcus neoformans [29] = assay: Antifungal activity against Cryptococcus neoformans H99 infected in C57BL/6J mouse assessed as reduction in fungal burden in lung at 2 mg/kg, ip; format: functional, organism-based
Cryptococcus neoformans [30] = assay: Antifungal activity against Cryptococcus neoformans H99 infected in C57BL/6J mouse assessed as reduction in fungal burden in brain at 10 mg/kg, ip; format: functional, organism-based
Cryptococcus neoformans [31] = assay: Antifungal activity against Cryptococcus neoformans H99 infected in C57BL/6J mouse assessed as reduction in fungal burden in lung at 10 mg/kg, ip; format: functional, organism-based
[32] = Toxicity against ICR mouse assessed as enlargement of cytoplasm in hepatocytes at 50 mg/kg, ip administered at 24 hrs interval for 7 days by hematoxylin and eosin staining based analysis; format: organism-based; settings: in vivo
[33] = Toxicity against ICR mouse assessed as glomerular enlargement at 50 mg/kg, ip administered at 24 hrs interval for 7 days by hematoxylin and eosin staining based analysis; format: organism-based; settings: in vivo, 168 h, time 7 day
[34] = Toxicity against ICR mouse assessed as inflammatory cell infiltration at 50 mg/kg, ip administered at 24 hrs interval for 7 days by hematoxylin and eosin staining based analysis; format: organism-based; settings: in vivo, 168 h, time 7 day
[35] = Toxicity against ICR mouse assessed as increase in monocytes at 50 mg/kg, ip administered at 24 hrs interval for 7 days by hematoxylin and eosin staining based analysis; format: organism-based; settings: in vivo, 168 h, time 7 day

Structure (SMILES)	MIC (Candida albicans)	MIC (Candida parapsilosis)	MIC (Candida tropicalis)	MIC (Nakaseomyces glabratus [1])	MIC ([Candida] auris)	MIC (Nakaseomyces glabratus [2])	MIC (Nakaseomyces glabratus [3])	MIC (Nakaseomyces glabratus [4])	MIC (Nakaseomyces glabratus [5])	MIC [6]	MIC [7]	MIC [8]	MIC [9]	MIC [10]	MIC (Cryptococcus neoformans [11])	MIC (Cryptococcus neoformans [12])	MIC (Cryptococcus neoformans [13])	MIC (Cryptococcus neoformans [14])	MIC (Pichia kudriavzevii)	MIC (Cryptococcus neoformans [18])	other results
C[C@@H]1[C@H](O)[C@@H](C)/C=C/C=C/C=C/C=C/C=C/C=C/C=C/[C@H](O[C@@H]2O[C@H](C)[C@@H](O)[C@H](N)[C@@H]2O)C[C@@H]2O[C@](O)(C[C@@H](O)C[C@@H](O)[C@H](O)CC[C@@H](O)C[C@@H](O)CC(=O)O[C@H]1C)C[C@H](O)[C@H]2C(=O)O [AMPHOTERICIN B]	1 µg/mL (≈ 1.08 µM)	0.5 µg/mL (≈ 0.541 µM)	1 µg/mL (≈ 1.08 µM)	< 0.125 µg/mL	8 µg/mL (≈ 8.66 µM)	2 µg/mL (≈ 2.16 µM)	16 µg/mL (≈ 17.3 µM)	0.5 µg/mL (≈ 0.541 µM)	1 µg/mL (≈ 1.08 µM)	4 µg/mL (≈ 4.33 µM)	1 µg/mL (≈ 1.08 µM)	1 µg/mL (≈ 1.08 µM)	1 µg/mL (≈ 1.08 µM)	1 µg/mL (≈ 1.08 µM)	2 µg/mL (≈ 2.16 µM)	2 µg/mL (≈ 2.16 µM)	1 µg/mL (≈ 1.08 µM)	8 µg/mL (≈ 8.66 µM)	–	–	Activity (HUVEC): Non-Toxic; Activity (Caco-2): Non-Toxic; hemolysis at 2 ug/ml [15]: > 10%; hemolysis at 64 ug/ml [16]: 100%
O=C(NC1CCS(=O)(=O)C1)c1ccc(-n2nc(-c3ccccc3O)nc2-c2ccccc2O)cc1 (configuration not stated)	4 µg/mL (≈ 8.15 µM)	64 µg/mL (≈ 130 µM)	2 µg/mL (≈ 4.08 µM)	< 0.125 µg/mL	> 64 µg/mL	< 0.125 µg/mL	< 0.125 µg/mL	< 0.125 µg/mL	< 0.125 µg/mL	0.5 µg/mL (≈ 1.02 µM)	0.5 µg/mL (≈ 1.02 µM)	0.25 µg/mL (≈ 0.51 µM)	0.25 µg/mL (≈ 0.51 µM)	< 0.125 µg/mL	1 µg/mL (≈ 2.04 µM)	0.5 µg/mL (≈ 1.02 µM)	< 0.125 µg/mL	< 0.125 µg/mL	0.25 µg/mL (≈ 0.51 µM)	< 0.125 µg/mL	MIC (Cryptococcus neoformans [17]): 0.25 µg/mL (≈ 0.51 µM); k el [19]: 8.33e-05 s⁻¹; half-life [20]: 2.13 h; microsomal CLint [21]: 10.9 µL/min/mg; Activity (Cryptococcus neoformans [22]): inactive; Activity (HUVEC): Non-Toxic; Activity (Caco-2): Non-Toxic; Activity (Erythrocyte): Non-Toxic; Activity [23]: Toxic; Activity [24]: Toxic; Activity [25]: Toxic; Activity [26]: Toxic; Activity [27]: Toxic; Activity (Cryptococcus neoformans [28]): inactive; Activity (Cryptococcus neoformans [29]): inactive; Activity (Cryptococcus neoformans [30]): Active; Activity (Cryptococcus neoformans [31]): Active; Activity [32]: Toxic
OC(Cn1cncn1)(Cn1cncn1)c1ccc(F)cc1F [FLUCONAZOLE]	0.125 µg/mL (≈ 0.408 µM)	1 µg/mL (≈ 3.27 µM)	< 0.125 µg/mL	0.25 µg/mL (≈ 0.816 µM)	> 64 µg/mL	4 µg/mL (≈ 13.1 µM)	> 64 µg/mL	2 µg/mL (≈ 6.53 µM)	2 µg/mL (≈ 6.53 µM)	32 µg/mL (≈ 104 µM)	16 µg/mL (≈ 52.2 µM)	16 µg/mL (≈ 52.2 µM)	4 µg/mL (≈ 13.1 µM)	4 µg/mL (≈ 13.1 µM)	16 µg/mL (≈ 52.2 µM)	8 µg/mL (≈ 26.1 µM)	2 µg/mL (≈ 6.53 µM)	4 µg/mL (≈ 13.1 µM)	16 µg/mL (≈ 52.2 µM)	8 µg/mL (≈ 26.1 µM)	Activity (Erythrocyte): Non-Toxic
O=C(O)c1ccc(-n2nc(-c3ccccc3O)nc2-c2ccccc2O)cc1 [DEFERASIROX]	> 64 µg/mL	32 µg/mL (≈ 85.7 µM)	8 µg/mL (≈ 21.4 µM)	0.5 µg/mL (≈ 1.34 µM)	> 64 µg/mL	0.5 µg/mL (≈ 1.34 µM)	2 µg/mL (≈ 5.36 µM)	0.5 µg/mL (≈ 1.34 µM)	0.25 µg/mL (≈ 0.67 µM)	8 µg/mL (≈ 21.4 µM)	8 µg/mL (≈ 21.4 µM)	8 µg/mL (≈ 21.4 µM)	2 µg/mL (≈ 5.36 µM)	2 µg/mL (≈ 5.36 µM)	8 µg/mL (≈ 21.4 µM)	8 µg/mL (≈ 21.4 µM)	4 µg/mL (≈ 10.7 µM)	2 µg/mL (≈ 5.36 µM)	2 µg/mL (≈ 5.36 µM)	2 µg/mL (≈ 5.36 µM)	MIC (Cryptococcus neoformans [17]): 2 µg/mL (≈ 5.36 µM); k el [19]: 5e-05 s⁻¹; half-life [20]: 3.9 h; microsomal CLint [21]: 5.94 µL/min/mg; Activity [23]: Toxic; Activity [24]: Toxic; Activity [25]: Toxic; Activity [33]: Toxic; Activity [34]: Toxic; Activity [35]: Toxic; Activity [32]: Toxic
